Reference: ChEMBL document CHEMBL1201862, “PubChem BioAssay data set” (2004)
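Cells were grown in 96-well plates and exposed to each compound for 48 hours at five concentrations; endpoints were interpolated linearly between bracketing concentrations, or set to the highest concentration if not reached. GI50 = concentration required for 50% inhibition of growth.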 Active and inactive are the calls of the source. No stated cut-off is given here; in the data, active = GI50 up to about 1.1 µM and inactive = higher.

What was measured:
Test in all cases: NCI-60 cell line screen, 48 h
[1] = test system: SK-MEL-28
[2] = test system: SF-295
[3] = test system: SW-620
[4] = test system: SR
[5] = test system: 786-0
[6] = test system: LOX IMVI
[7] = test system: NCI-H23
[8] = test system: HCC 2998
[9] = test system: SF-268
[10] = test system: SF-539
[11] = test system: OVCAR-5
[12] = test system: NCI-H226
[13] = test system: Malme-3M
[14] = test system: UO-31
[15] = test system: CAKI-1
[16] = test system: DU-145
[17] = test system: CCRF-CEM
[18] = test system: A498

| Structure (SMILES) | GI50 [1] | GI50 [2] | GI50 [3] | GI50 [4] | GI50 [5] | GI50 [6] | GI50 [7] | GI50 [8] | GI50 [9] | GI50 [10] | GI50 [11] | GI50 [12] | GI50 [13] | GI50 [14] | GI50 [15] | GI50 [16] | GI50 [17] | GI50 [18] |
| --- | --- | --- | --- | --- | --- | --- | --- | --- | --- | --- | --- | --- | --- | --- | --- | --- | --- | --- |
| COc1ccc2c(c1)N=C1CSC(c3cccc(Br)c3)N1C2 (stereo unspecified) | 32.8 µM (inactive) | 14.2 µM (inactive) | 25.5 µM (inactive) | 4.52 µM (inactive) | 17.4 µM (inactive) | 18.5 µM (inactive) | 17.9 µM (inactive) | 6.43 µM (inactive) | 28.9 µM (inactive) | 17.9 µM (inactive) | 18.8 µM (inactive) | 22.9 µM (inactive) | 18 µM (inactive) | 12.6 µM (inactive) | 6.19 µM (inactive) |  |  |  |
| C=C1C(=O)O[C@H]2C1C[C@@H](OC(C)=O)/C(C)=C/CC[C@@]1(C)O[C@H]21 (stereo partly specified) | 10.7 µM (inactive) | 21.1 µM (inactive) | 4.47 µM (inactive) | 3.38 µM (inactive) | 11.5 µM (inactive) | 0.817 µM (active) | 15.1 µM (inactive) | 13 µM (inactive) |  |  | 17.6 µM (inactive) |  | 4.36 µM (inactive) | 4.91 µM (inactive) | 9.18 µM (inactive) | 14.6 µM (inactive) | 1.77 µM (inactive) |  |
| C=CCOC(=O)C[C@H](NC(=O)[C@H](Cc1ccc(O)cc1)NCC(F)(F)F)C(=O)OCC=C | 20.6 µM (inactive) | > 100 µM (inactive) | 54.3 µM (inactive) | 34 µM (inactive) | > 100 µM (inactive) | 65.5 µM (inactive) | 37.5 µM (inactive) | 83.4 µM (inactive) | 37.7 µM (inactive) | 57.8 µM (inactive) | > 100 µM (inactive) | > 100 µM (inactive) | 22.6 µM (inactive) | > 100 µM (inactive) | > 100 µM (inactive) |  |  |  |
| CC1=CC(=O)/C(=C/NC(N)=S)C(=O)O1 |  | > 100 µM (inactive) | > 100 µM (inactive) |  | > 100 µM (inactive) |  | > 100 µM (inactive) | > 100 µM (inactive) | > 100 µM (inactive) | > 100 µM (inactive) | > 100 µM (inactive) | > 100 µM (inactive) |  | 38.5 µM (inactive) | > 100 µM (inactive) | > 100 µM (inactive) | 28.2 µM (inactive) |  |
| O=C1/C(=C/c2cccc([N+](=O)[O-])c2)Sc2scc(-c3ccc([N+](=O)[O-])cc3)[n+]21 | 25.5 µM (inactive) | 14.8 µM (inactive) | 30 µM (inactive) |  | 16.4 µM (inactive) | 18.5 µM (inactive) | 15.2 µM (inactive) | 16.4 µM (inactive) |  | 23.8 µM (inactive) | 24.5 µM (inactive) | 26.3 µM (inactive) |  | 11.3 µM (inactive) | 20.6 µM (inactive) | 35.2 µM (inactive) |  |  |
| C/C(=N\Nc1nc2ccccc2[nH]1)c1ncccn1 | 0.0948 µM (active) | 0.0453 µM (active) | 0.0344 µM (active) | < 0.021 µM (active) | 0.0238 µM (active) | 0.047 µM (active) | 0.0621 µM (active) | 0.721 µM (active) | 0.0382 µM (active) | 0.0172 µM (active) | 0.735 µM (active) | 0.0422 µM (active) | < 0.0243 µM (active) | < 0.0202 µM (active) | < 0.0224 µM (active) |  | 0.0303 µM (active) | 0.0851 µM (active) |
| O=C(O)Cc1ccc(Nc2nc3cc(C(F)(F)F)ccc3nc2C(=O)O)cc1 | > 100 µM (inactive) | > 100 µM (inactive) | > 100 µM (inactive) | < 0.01 µM (active) | > 100 µM (inactive) | > 100 µM (inactive) | > 100 µM (inactive) |  | > 100 µM (inactive) | > 100 µM (inactive) | > 100 µM (inactive) | > 100 µM (inactive) | > 100 µM (inactive) | > 100 µM (inactive) | > 100 µM (inactive) | > 100 µM (inactive) |  | > 100 µM (inactive) |
| CC(=O)OC1CC[C@@]2(C)C(C1)CC(OC(C)=O)[C@@H]1C2CC(OC(C)=O)[C@]2(C)C(C(C)CC=C(c3ccc(Cl)cc3)c3ccc(Cl)cc3)CCC12 (stereo partly specified) | > 100 µM (inactive) | 52.1 µM (inactive) | 49.8 µM (inactive) | 20.2 µM (inactive) | > 100 µM (inactive) |  |  | 94 µM (inactive) | 59.3 µM (inactive) | 67.3 µM (inactive) | 36.8 µM (inactive) |  |  | 56.2 µM (inactive) |  |  | 16.3 µM (inactive) |  |
| COc1ccc2c(c1O)-c1c(OC)c(OC)cc3c1[C@H](C2)[N+](C)(C)CC3 | > 100 µM (inactive) | > 100 µM (inactive) | > 100 µM (inactive) |  | > 100 µM (inactive) | > 100 µM (inactive) | > 100 µM (inactive) | > 100 µM (inactive) | > 100 µM (inactive) | > 100 µM (inactive) | > 100 µM (inactive) | > 100 µM (inactive) | > 100 µM (inactive) | > 100 µM (inactive) | > 100 µM (inactive) | > 100 µM (inactive) | > 100 µM (inactive) | > 100 µM (inactive) |
